# Article PMC9481563, “Structural insights into the pSer/pThr dependent regulation of the SHP2 tyrosine phosphatase in insulin and CD28 signaling” (Nature Communications, 2022)
# Positions count from the first letter of the chain named.
# Assays:
# [1] = target: T1, inactive SHP2 catalytic domain Loopinv (R362E) (Homo sapiens, UniProt Q06124, C459S/R362E); experiment: Fluorescence polarization titrations, SHP2 Loopinv; assay type: binding; conditions: competitive FP titration vs CF-ppIRS1 100 nM, protein fixed; n = 3 technical replicates
# T1 construct: SHP2 R362E (Loopinv); 219-528 + C459S; His6 (N); made in house; host or cells: E. coli BL21 (DE3)
# T1 sequence (Q06124 219-528 R362E/C459S): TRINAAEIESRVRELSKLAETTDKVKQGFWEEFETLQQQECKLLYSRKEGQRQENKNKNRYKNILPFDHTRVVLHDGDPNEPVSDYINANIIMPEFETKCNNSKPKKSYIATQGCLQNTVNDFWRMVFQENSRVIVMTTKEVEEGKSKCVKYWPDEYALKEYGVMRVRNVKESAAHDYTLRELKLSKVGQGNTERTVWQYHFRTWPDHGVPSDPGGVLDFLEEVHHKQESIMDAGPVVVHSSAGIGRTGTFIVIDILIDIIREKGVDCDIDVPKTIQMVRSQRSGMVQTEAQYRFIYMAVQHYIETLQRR
# Excerpt: (§1) The two SH2 domains of PI3KR1 (UniProt P27986; nSH2: 321−433 cSH2: 614–724) were cloned from HEK293T cDNA pool, and subsequently ligated into a modified pET vector encoding maltose binding protein (MBP) tag on the N-terminal and a hexa-His tag on the C-terminal end of the construct. Similarly, the catalytic, tyrosine phosphatase domains of PTPRε (P23469 first domain: 107–399) and PTP1B (P18031; 1–229) were cloned from a HEK293T cDNA pool, and inserted into a pBH4 vector encoding an N-terminal His6 tag (for the final binding experiments, an MBP-tagged version of PTPRε was employed). […] Surface mutants of SHP2 were constructed from the SHP2-C459S plasmid, using the QuickChange protocol. The D425A and H426A catalytic site mutants and all enzymatically active surface mutants were generated similarly, but from the plasmid encoding the wild-type catalytic domain of SHP2. Wild-type C-terminal FLAG-tagged human IRS1 was cloned between HindIII-NotI sites of pcDNA3.1(+) vector (#V79020 Invitrogen, Waltham MA USA). Ser/Ala mutant IRS1 was generated by replacing the region of S616/S636/S666/S736 positions with a cassette carrying S616A/S636A/S666A/S736A mutations. All constructs were validated by complete Sanger sequencing before protein expression and purification. The oligonucleotide sequences used are shown on Supplementary table 4.
# (§2) Fluorescence polarization (FP) assays were performed as follows: In direct titration experiments, protein concentration was varied in an 1/2 or 2/3 dilution series (90 µl protein+ 45 µl mix), while concentration of the reporter peptide (CF-ppIRS1) was kept constant at 100 nM. In competitive titrations, the labelled CF-ppIRS1 peptide and protein were both fixed (at 50–80% saturation) and the unlabelled competitor peptide concentration was varied. Fluorescence polarization was always measured in triplicates, on black Corning low volume round bottom 384-well plates (with 10 ul volumes), using a BioTek Cytatation 5 reader, with the green fluorescent protein (GFP) cube filter set (ex: 485/20, em: 528/20, gain: 50, height: 7.5). Fluorescence polarization data was evaluated on Origin 2018. The dissociation constants (Kd) were determined by using the appropriate quadratic and cubic equations inserted as a user-defined function and applying nonlinear fit until convergence. The fitting formulae are shown at Supplementary note 1. Kd ratio distributions for Fig. 6 were calculated using a Monte-Carlo approach (Supplementary note 2).
# (§3) Supplementary note 1. Curve fitting of fluorescence polarization (FP) measurements.
# (§4) To evaluate polarization values from direct and competitive titrations, we used the following fitting formulae in Origin 2018, as detailed below.
# (§5) Direct titration curves were fitted according to the following formula: […]
# (§6) Where Imin is the minimal anisotropy, Imax is the (asymptotically estimated) maximal intensity. K0 is the starting concentration of the protein, while T0 is the (fixed) concentration of the labelled peptide and Kd is the dissociation constant.
# (§7) Competitive titration curves were fitted with a different formula (In addition to those defined above, constants KdT KdB B0 T0 and D0 here refer to the Kd derived from the direct titration, the unknown Kd of the analyte, the labelled peptide concentration, the competitor peptide concentration as well as the protein concentration, respectively).
# (§8) The ± sign refers to two different scenarios, depending on the sign of discriminant (KdT > KdB or […]). For unknown analytes, the choice of sign is not arbitrary, as the fitting will not converge unless the appropriate formula is chosen: […]
# (§9) Where A, B and C correspond to the following expressions: […]
# [2] = target: T2, inactive SHP2 catalytic domain Pocketless (K260E+R265S) (Homo sapiens, UniProt Q06124, C459S/K260E/R265S); experiment: Fluorescence polarization titrations, SHP2 Pocketless; assay type: binding; conditions: competitive FP titration vs CF-ppIRS1 100 nM, protein fixed; n = 3 technical replicates
# T2 construct: SHP2 K260E+R265S (Pocketless); 219-528 + C459S; His6 (N); made in house; host or cells: E. coli BL21 (DE3)
# T2 sequence (Q06124 219-528 K260E/R265S/C459S): T1 sequence (Q06124 219-528 R362E/C459S) with K42E, R47S, E144R
# Excerpt: as §1, §2, §3, §4, §5, §6, §7, §8, §9
SMILES,Kd [1] [µM],Kd [2] [µM]
CSCC[C@H](NC(=O)[C@H](Cc1ccc(OP(=O)(O)O)cc1)NC(=O)[C@H](CC(=O)O)NC(=O)[C@H](CO)NC(=O)[C@H](Cc1c[nH]cn1)NC(=O)[C@H](CC(C)C)NC(=O)[C@H](CC(C)C)NC(=O)[C@H](CCCNC(=N)N)NC(=O)[C@H](CO)NC(=O)[C@@H](N)CCCNC(=N)N)C(=O)N[C@@H](CC(N)=O)C(=O)N[C@@H](CCSC)C(=O)N[C@H](C(=O)N1CCC[C@H]1C(=O)N[C@@H](CCCNC(=N)N)C(=O)N[C@@H](CCCNC(=N)N)C(=O)O)[C@@H](C)O [p0CD28],45.7 ± 7.49,34.8 ± 2.25
CSCC[C@H](NC(=O)[C@@H]1CCCN1C(=O)[C@H](CCSC)NC(=O)[C@H](Cc1ccc(OP(=O)(O)O)cc1)NC(=O)[C@H](CC(=O)O)NC(=O)CNC(=O)[C@H](CO)NC(=O)CNC(=O)[C@H](CCCCN)NC(=O)[C@H](CCCNC(=N)N)NC(=O)CN)C(=O)N[C@@H](CO)C(=O)N1CCC[C@H]1C(=O)N[C@@H](CCCCN)C(=O)N[C@@H](CO)C(=O)O [p0IRS1],61.8 ± 16.2,191 ± 15.5
CC[C@H](C)[C@H](NC(=O)[C@H](CC(N)=O)NC(=O)[C@@H](NC(=O)[C@H](Cc1ccc(OP(=O)(O)O)cc1)NC(=O)[C@H](CCC(=O)O)NC(=O)CNC(=O)[C@@H]1CCCN1C(=O)[C@H](CO)NC(=O)[C@H](CCCCN)NC(=O)[C@@H]1CCCN1C(=O)[C@@H](N)CCC(=O)O)C(C)C)C(=O)N[C@@H](CCC(=O)O)C(=O)N[C@@H](Cc1ccccc1)C(=O)O [p0SRev-IRS1],9.35 ± 1.54,17.7 ± 2.13
CSCC[C@H](NC(=O)[C@H](Cc1ccc(OP(=O)(O)O)cc1)NC(=O)[C@H](CC(=O)O)NC(=O)[C@H](CO)NC(=O)[C@H](Cc1c[nH]cn1)NC(=O)[C@H](CC(C)C)NC(=O)[C@H](CC(C)C)NC(=O)[C@H](CCCNC(=N)N)NC(=O)[C@H](CO)NC(=O)[C@@H](N)CCCNC(=N)N)C(=O)N[C@@H](CC(N)=O)C(=O)N[C@@H](CCSC)C(=O)N[C@H](C(=O)N1CCC[C@H]1C(=O)N[C@@H](CCCNC(=N)N)C(=O)N[C@@H](CCCNC(=N)N)C(=O)O)[C@@H](C)OP(=O)(O)O [ppCD28],15.2 ± 0.49,5.63 ± 0.29
CSCC[C@H](NC(=O)[C@@H]1CCCN1C(=O)[C@H](CCSC)NC(=O)[C@H](Cc1ccc(OP(=O)(O)O)cc1)NC(=O)[C@H](CC(=O)O)NC(=O)CNC(=O)[C@H](CO)NC(=O)CNC(=O)[C@H](CCCCN)NC(=O)[C@H](CCCNC(=N)N)NC(=O)CN)C(=O)N[C@@H](COP(=O)(O)O)C(=O)N1CCC[C@H]1C(=O)N[C@@H](CCCCN)C(=O)N[C@@H](CO)C(=O)O [ppIRS1],7.53 ± 1.1,6.36 ± 0.28
CC[C@H](C)[C@H](NC(=O)[C@H](CC(N)=O)NC(=O)[C@@H](NC(=O)[C@H](Cc1ccc(OP(=O)(O)O)cc1)NC(=O)[C@H](CCC(=O)O)NC(=O)CNC(=O)[C@@H]1CCCN1C(=O)[C@H](COP(=O)(O)O)NC(=O)[C@H](CCCCN)NC(=O)[C@@H]1CCCN1C(=O)[C@@H](N)CCC(=O)O)C(C)C)C(=O)N[C@@H](CCC(=O)O)C(=O)N[C@@H](Cc1ccccc1)C(=O)O [ppSRev-IRS1],0.67 ± 0.16,1.91 ± 0.2
